Measurements published in PMC9844538 (Nature chemical biology, 2022).
Starred links: 1 amine or outer side, 2 acyl side, 3 side chain; linkers in the order of their positions; H or OH if unused. Positions of bridges follow the written chain, without caps; N, C: chain ends. Non-standard residues stand in square brackets, D forms with d. Residues, ends and D or L forms follow the SMILES beside them. *: point of attachment. βAsp = O=C(O)[C@H](CC(=O)[*:2])N[*:1]; His(π-Me) = Cn1cncc1C[C@H](N)C(=O)O; For = O=C*

Legend:
[1] = system: Mycobacterium tuberculosis H37Rv mc^26020; assay: MIC, broth microdilution; format: cell-based; settings: bleomycin susceptibility, value before the MIC shift
MtbGyrase = MtbGyrase (Mycobacterium tuberculosis, UniProt P9WG45+P9WG47); format: biochemical
MtbGyrase, sequence (P9WG45 whole entry, looked up): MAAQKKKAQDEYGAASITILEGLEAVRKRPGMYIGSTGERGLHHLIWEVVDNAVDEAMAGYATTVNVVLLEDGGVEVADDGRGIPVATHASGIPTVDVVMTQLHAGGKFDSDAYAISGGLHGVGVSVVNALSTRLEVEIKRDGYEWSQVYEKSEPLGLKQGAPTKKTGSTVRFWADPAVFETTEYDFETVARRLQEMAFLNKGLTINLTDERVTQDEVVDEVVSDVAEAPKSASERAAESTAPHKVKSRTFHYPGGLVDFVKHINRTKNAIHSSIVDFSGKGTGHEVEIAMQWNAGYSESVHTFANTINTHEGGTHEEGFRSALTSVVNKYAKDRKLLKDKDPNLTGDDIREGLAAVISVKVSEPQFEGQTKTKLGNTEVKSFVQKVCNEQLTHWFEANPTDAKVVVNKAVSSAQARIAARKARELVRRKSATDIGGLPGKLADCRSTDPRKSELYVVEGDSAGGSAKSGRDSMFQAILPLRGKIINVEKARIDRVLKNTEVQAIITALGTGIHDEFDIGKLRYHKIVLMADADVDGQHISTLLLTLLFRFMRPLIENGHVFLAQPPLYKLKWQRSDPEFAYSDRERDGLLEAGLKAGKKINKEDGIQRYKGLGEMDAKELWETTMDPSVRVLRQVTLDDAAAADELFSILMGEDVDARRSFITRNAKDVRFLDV
MtbGyrase, sequence (P9WG47 whole entry, looked up): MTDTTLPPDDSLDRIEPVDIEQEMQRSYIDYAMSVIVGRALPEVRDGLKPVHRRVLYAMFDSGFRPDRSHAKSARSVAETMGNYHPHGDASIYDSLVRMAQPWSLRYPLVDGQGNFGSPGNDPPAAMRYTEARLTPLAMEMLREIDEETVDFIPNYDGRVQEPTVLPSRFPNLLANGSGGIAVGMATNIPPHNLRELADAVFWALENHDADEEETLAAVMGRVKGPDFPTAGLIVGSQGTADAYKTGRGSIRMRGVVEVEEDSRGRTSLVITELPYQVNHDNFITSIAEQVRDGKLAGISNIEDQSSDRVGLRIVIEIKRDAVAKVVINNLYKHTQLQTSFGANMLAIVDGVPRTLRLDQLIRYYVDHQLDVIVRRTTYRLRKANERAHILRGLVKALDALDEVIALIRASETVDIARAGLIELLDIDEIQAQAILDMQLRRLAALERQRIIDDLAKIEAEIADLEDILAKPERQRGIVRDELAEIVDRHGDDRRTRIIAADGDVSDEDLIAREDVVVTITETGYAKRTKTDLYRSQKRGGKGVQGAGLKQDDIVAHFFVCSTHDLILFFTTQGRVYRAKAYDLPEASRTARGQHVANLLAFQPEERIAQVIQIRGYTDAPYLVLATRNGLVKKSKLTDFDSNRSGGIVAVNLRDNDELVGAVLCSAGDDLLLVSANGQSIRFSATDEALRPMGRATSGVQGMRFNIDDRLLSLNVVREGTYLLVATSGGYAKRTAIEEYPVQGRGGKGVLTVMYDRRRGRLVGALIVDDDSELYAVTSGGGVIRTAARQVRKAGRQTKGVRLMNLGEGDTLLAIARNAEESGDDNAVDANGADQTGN

mouse = assay: Toxicity in a mouse; format: in vivo; settings: intraperitoneally, 100 mg kg^−1, survival observed for 24 hours
[2] = system: M. tuberculosis H37Rv mc^26020; assay: Vitamin B12 competition assay; format: cell-based, Mycobacterium tuberculosis; settings: 1,000-fold molar excess of vitamin B12, 7 days, 37 °C
M. tuberculosis = assay: Cell elongation, microscopy; format: cell-based, Mycobacterium tuberculosis
E. coli WO153 = assay: Macromolecule incorporation assay; format: cell-based, Escherichia coli; settings: 8x MIC of evybactin
[3] = system: M. tuberculosis H37Rv mc^26020; assay: Time-dependent killing; format: cell-based, Mycobacterium tuberculosis
[4] = target: T1, M. tuberculosis gyrase (MtbGyrase) (Mycobacterium tuberculosis, UniProt P9WG45+P9WG47); format: biochemical; settings: no ATP
T1 sequence (P9WG45 whole entry, looked up): as the sequence (P9WG45 whole entry, looked up) above
T1 sequence (P9WG47 whole entry, looked up): as the sequence (P9WG47 whole entry, looked up) above

[5] = target: T1, M. tuberculosis gyrase (MtbGyrase); assay: Supercoiling assay; format: biochemical
E. coli gyrase = E. coli gyrase (Escherichia coli, UniProt P0AES4+P0AES6); assay: Supercoiling assay; format: biochemical; settings: 100 μM evybactin, 0–20 nM enzyme, strong cleavage visible at 5 nM enzyme
E. coli gyrase, sequence (P0AES4 whole entry, one chain of several): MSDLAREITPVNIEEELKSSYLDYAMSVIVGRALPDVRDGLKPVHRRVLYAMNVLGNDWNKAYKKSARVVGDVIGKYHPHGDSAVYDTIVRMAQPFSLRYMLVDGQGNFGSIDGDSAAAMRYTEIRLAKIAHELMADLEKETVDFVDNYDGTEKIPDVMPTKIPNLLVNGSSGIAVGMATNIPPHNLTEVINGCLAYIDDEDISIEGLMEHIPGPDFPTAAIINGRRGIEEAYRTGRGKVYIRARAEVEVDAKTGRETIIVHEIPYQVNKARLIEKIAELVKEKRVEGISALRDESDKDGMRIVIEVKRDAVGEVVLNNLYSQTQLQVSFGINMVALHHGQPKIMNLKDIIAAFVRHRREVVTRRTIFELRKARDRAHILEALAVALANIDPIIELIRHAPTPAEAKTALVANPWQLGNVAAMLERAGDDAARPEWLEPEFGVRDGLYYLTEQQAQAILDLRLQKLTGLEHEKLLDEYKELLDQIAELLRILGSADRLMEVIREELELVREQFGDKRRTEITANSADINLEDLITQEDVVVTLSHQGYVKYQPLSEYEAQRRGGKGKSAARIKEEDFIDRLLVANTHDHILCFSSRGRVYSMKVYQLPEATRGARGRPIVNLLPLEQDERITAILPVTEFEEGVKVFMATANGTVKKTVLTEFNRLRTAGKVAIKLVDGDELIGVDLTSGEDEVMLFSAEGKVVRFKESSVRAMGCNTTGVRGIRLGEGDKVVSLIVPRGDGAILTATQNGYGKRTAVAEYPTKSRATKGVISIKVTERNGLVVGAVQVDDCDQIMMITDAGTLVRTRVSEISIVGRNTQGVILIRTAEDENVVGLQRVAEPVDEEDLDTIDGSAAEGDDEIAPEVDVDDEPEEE

E. coli topo IV = E. coli topo IV (Escherichia coli, UniProt P0AFI2+P20083); assay: Supercoil relaxation assay; format: biochemical; settings: 100 μM evybactin, 0–20 nM enzyme
[6] = system: commensal bacteria, including Lactobacillus sp. and Bacteroides sp.; assay: Activity against commensal bacteria; format: cell-based

bleomycin
MIC (before shift) [1]: 0.06 µg/mL

COc1c(N2C[C@@H]3CCCN[C@@H]3C2)c(F)cc2c(=O)c(C(=O)O)cn(C3CC3)c12 [moxifloxacin]
ATPase rate (Vmax) (MtbGyrase): 0.4 ± 0.1 molecules of ATP per second per enzyme

C[C@@H](O)[C@H](NC(=O)[C@H](Cc1c[nH]c2ccccc12)NC=O)C(=O)N[C@H](CCCNC(=N)N)C(=O)N[C@@H]1C(=O)N[C@@H](Cc2cncn2C)C(=O)N[C@H](C(=O)O)CC(=O)N[C@H](CO)C(=O)N[C@@H](Cc2ccccc2)C(=O)NCC(=O)N[C@H](CCCNC(=N)N)C(=O)N[C@@H](CO)C(=O)N[C@H](C(=O)O)CC(=O)O[C@@H]1C [evybactin] (For-WT[dR]T[His(π-Me)][βAsp][dS]FG[dR]S[βAsp]; ester 4-C)
toxicity, survival (mouse): no indications of toxicity | effect of vitamin B12 on evybactin susceptibility [2]: no change in the susceptibility | cell length versus non-treated cells (M. tuberculosis): approximately two times longer | DNA synthesis (^14C-thymidine incorporation) (E. coli WO153): inhibits DNA synthesis | RNA, protein and fatty acid synthesis (label incorporation) (E. coli WO153): less of an effect | killing ability [3]: highly bactericidal | DNA cleavage in the absence of ATP [4]: little to no cleavage | supercoiling activity and DNA cleavage [5]: inhibited the supercoiling activity | DNA cleavage (E. coli gyrase): stimulated DNA cleavage | DNA cleavage (E. coli topo IV): stimulated DNA cleavage | activity against commensal bacteria [6]: no activity | toxicity against human cells (HepG2): no toxicity | toxicity against human cells (FaDu): no toxicity | toxicity against human cells (HEK293): no toxicity | solubility (Solubility in water): > 40 mg/mL
